Measurements from patent publication US4272530A, “Δ^1,3,5(10) -Estratrienes” (Roussel Uclaf, priority 1977, dated 1981).

Columns and labels:
[1] = target: T1, specific uterine reception of estradiol (uterus cytosol) (Mus musculus, UniProt P19785); assay: hormonal receptor method of Raynaud et al.: displacement of tritiated estradiol in uterus cytosol; format: binding, mice
T1 construct: the uterus was removed and homogenized in a buffered solution; from tissue; host or cells: uterus cytosol (105,000 g supernatant) of immature female mice, 18 to 21 days old
T1 sequence (P19785 1-599): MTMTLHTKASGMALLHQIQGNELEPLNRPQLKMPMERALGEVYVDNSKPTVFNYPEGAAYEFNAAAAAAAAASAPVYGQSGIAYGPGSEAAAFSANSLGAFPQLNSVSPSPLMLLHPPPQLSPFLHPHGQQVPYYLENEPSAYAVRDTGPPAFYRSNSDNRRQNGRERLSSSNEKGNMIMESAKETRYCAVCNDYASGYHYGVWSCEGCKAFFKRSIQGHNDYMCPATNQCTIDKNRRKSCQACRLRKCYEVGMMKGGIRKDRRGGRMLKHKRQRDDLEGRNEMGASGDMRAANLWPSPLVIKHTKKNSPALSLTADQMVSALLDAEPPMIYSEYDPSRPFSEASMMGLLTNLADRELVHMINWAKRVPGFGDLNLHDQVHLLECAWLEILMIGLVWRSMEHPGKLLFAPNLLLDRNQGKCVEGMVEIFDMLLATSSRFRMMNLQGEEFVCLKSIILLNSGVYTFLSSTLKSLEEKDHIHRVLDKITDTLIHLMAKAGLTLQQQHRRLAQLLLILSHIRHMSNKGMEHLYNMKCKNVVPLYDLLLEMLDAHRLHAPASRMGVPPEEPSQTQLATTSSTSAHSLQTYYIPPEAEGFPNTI
Method: The estrogenic activity was determined for 11β-vinyl-17α-ethynyl-^1,3,5(10) -estratriene-3,17β-diol was determined by the hormonal receptor method of Raynaud et al. [J. Ster. Biochem., Vol. 6 (1975), p. 615-622]. Immature female mice aged 18 to 21 days old were sacrificed and the uterus was removed and homogenized in a buffered solution of […] of tromethamine, 0.25 M of saccharose and a pH of 7.4 with hydrochloric acid. The homogenate was centrifuged at 105,000 g per hour and the surnageant or cytosol was adjusted to a dilution of 1/25 (weight/volume). […] The radioactivity of the tritiated product R was determined in 2 hours by the technique of adsorption on carbondextran (1.25%-0.625%). The plots were the curves representing the percentage of tritiated product R as a function of the log of the concentration of cold product R or the test product and the I50 straight line parallel to the axis of the abcisses and ordinates [formula] B/T max. is the percentage of tied tritiated product R when the product is not added and B/T min. is the percentage of tied tritiated product R when the maximum amount of cold product R is added.

female mice = assay: estrogenic (uterotrophic) activity by the method of Rubin, uterus weight; format: in vivo; settings: for Weight of uterus: female mice 19-21 days old, killed on 4th day, control 11.4 ± 0.5
Method: The estrogenic activity of the product of Example 1 was also determined by the method of Rubin [Endocrinology, Vol. 49 (1951), p. 429] in which female mice 19-21 days old received once a day for 3 days a subcutaneous injection of the test product. The animals were killed on the 4th day and the uterus was removed, dissected and weighed. The test product was administered in a volume of 0.1 ml of oily solution at doses of 0.01γ, 0.03γ, 0.09γ and 0.27γ.

SMILES: C#C[C@]1(O)CC[C@H]2[C@@H]3CCc4cc(O)ccc4[C@H]3[C@@H](C=C)C[C@@]21C [Example 1, 11β-vinyl-17α-ethynyl-Δ^1,3,5(10) -estratriene-3,17β-diol]
- affinity for specific uterine reception of estradiol compared with estradiol ([1]; conclusion from Table III): greater affinity for specific uterine reception of estradiol than estradiol
- ARL (relative affinity of the test product) ([1]; immature female mouse uterus cytosol, tritiated estradiol, 25° C. for 5 hours, estradiol = 100): 240
- uterotrophic activity (female mice; conclusion from Table IV): clear uterotrophic activity
- Weight of uterus (female mice; dose 0.01γ subcutaneous once a day for 3 days): 25.8 ± 1.7 mg
- Weight of uterus (female mice; dose 0.03γ subcutaneous once a day for 3 days): 90.1 ± 5.7 mg
- Weight of uterus (female mice; dose 0.09γ subcutaneous once a day for 3 days): 128.8 ± 12.1 mg
- Weight of uterus (female mice; dose 0.27γ subcutaneous once a day for 3 days): 107.6 ± 7.4 mg
